The text below walks through data of patent US7829552B2, “Phosphorus-containing thyromimetics” (Metabasis Therapeutics, Inc., priority 2003, dated 2010).

Data set [1] relates to ZDF rats. The experiment in a line: Circulating TSH in ZDF rats treated 28 days. Conditions: 50 mg/kg/d for 28 days. It is filed as in vivo, rat. An excerpt:
Another concern with synthetic thyromimetics is the suppression of the endogenous thyroid axis. Thyroid homeostasis is maintained by the action of thyroid releasing hormone (TRH) and thyroid stimulating hormone (TSH). […] Although this particular side effect has been noted, it has typically been treated with less concern than the cardiac safety issues. […] Therefore previous investigators have measured TSH levels when testing synthetic thyromimetics and have used a 30% decrease of TSH as the denominator in their therapeutic index calculations. […] Therefore, both compounds suppress TSH as doses lower than that required to decrease circulating cholesterol. […] However, 0.2 mg/kg/d of Compound 18 in 28 day treated ZDF rats, decreased TSH levels greater than 90%.

Another data set concerns isolated rat hepatocytes. Put plainly: Activation of prodrug in isolated rat hepatocytes. It is filed as in vitro ADME. Conditions: active species in hepatocytes, 100 μM. Here is the method: Method: Hepatocytes are prepared from fed Sprague-Dawley rats (250-300 g) according to the procedure of Berry and Friend (Berry, M. N., Friend, D. S. J. Cell Biol. 43, 506-520 (1969)) as modified by Groen (Groen, A. K. et al., Eur J. Biochem 122, 87-93 (1982)). Hepatocytes (60 mg wet weight/mL) are incubated in 1 mL Krebs-bicarbonate buffer containing 10 mM glucose, and 1 mg/mL BSA. Incubations are carried out in a 95% oxygen, 5% carbon dioxide atmosphere in closed, 50-mL Falcon tubes submerged in a rapidly shaking water bath (37° C.). Prodrugs are dissolved in DMSO to yield 10 mM stock solutions, and then diluted into the cell suspension to yield a final concentration of 100 μM. At appropriate time points over the course of 1 h, aliquots of the cell suspension are removed and spun through a silicon/mineral oil layer into 10% perchloric acid. The cell extracts in the acid layers are neutralized, and the intracellular prodrug metabolite content analyzed by reverse phase HPLC or LC-MS/MS (Example F). The AUC of the active species in the hepatocytes is calculated from the concentration-time profile of parent compound.

The test system of data set [2] is Hypercholesterolemic rats. The experiment in a line: Cholesterol lowering in hypercholesterolemic (cholesterol-fed) rats. In kind it is in vivo, rat. Here is the method: Plasma cholesterol values were assessed prior to and following treatment and the effects of compound were expressed as a percentage change from the pre-dose cholesterol levels. […] Compounds were routinely tested for oral efficacy at a dose of 0.5 mg/kg/d. Hypercholesterolemic rats were treated with vehicle, Compound 13-1-cis (a HepDirect version of Compound 7), Compound 19-1 (a diethyl ester of Compound 19-2), Compound 13-9 (a HepDirect version of Compound 19-2), Compound 12-5 (a bisPom version of compound 19-2), or Compound 15-5 (a bisamidate version of Compound 19-2) at 0.5 mg/kg/d orally. Compound 13-1-cis has been extensively characterized and was used as the positive control for the assay.

In the next data set the test system is cholesterol-fed rat. The experiment in a line: Subacute studies in cholesterol-fed rats, IP once-a-day for seven days: serum cholesterol, heart weight, heart GPDH.
Data set [3] is described as follows: Liver distribution following oral administration (liver levels of Compound 7 by LC-MS). In kind it is in vivo, rat. To be noted: levels of Compound 7 in liver, 10 mg/kg@1.5 h, normal rats. How it is done:
Liver levels of Compound 7 were assessed in normal rats following oral administration of the HepDirect™ or other prodrugs. The levels were used to estimate potential efficacy. Liver levels were assessed by LC-MS using the 363.3/63.0 peak area to estimate levels of Compound 7 generated by orally administered prodrugs.

The test system of data set [4] is ZDF rats. The experiment in a line: Liver triglycerides and liver histology in ZDF rats, oral 28 days. In kind it is in vivo, rat. How it is done:
In other experiments, Compound 7 was orally administered to ZDF rats for 28 days. Liver triglycerides were analyzed as described above. Total liver triglycerides were reduced in the treated animals 42% in the 2.5 mg/kg/d group. […] The hepatic steatosis is a well known and described phenomenon for the ZDF rat, and therefore not attributable to vehicle treatment.

For data set [5], the system named is ZDF rats. Conditions: rat, in vivo, 28 days. Here is the method:
Compound 18 was administered at doses up to 5 mg/kg/d. Compound cis-13-1 was administered at doses up to 50 mg/kg/d. We reasoned that the ZDF rat, as a metabolically challenged animal model, would be more sensitive to the potential adverse cardiac effects of thyromimetics than a normal, cholesterol-fed rat. At sacrifice, heart rate, and the first derivative of left ventricular pressure (LV dP/dt) were measured with a Millar catheter inserted into the left ventricle.

The next data set has as its system Sprague Dawley (SD) rat. The experiment in a line: Cardiovascular activity of T3 mimetics in the Sprague Dawley rat, oral 7 days. It is filed as in vivo. To be noted: SD rats, p.o. 7 days, Compound cis-13-1 1-50 mg/kg/day. An excerpt: Method: […] The control group (n=6) was given vehicle only. […] On the 7th day after the start of dosing, animals were anesthetized with Isoflurane and the left ventricle cannulated with a high fidelity catheter tip transducer via the right carotid artery. Left ventricular pressure, its first derivative (LVdP/dt), lead I ECG, and heart rate (HR) triggered off the ECG waveform, were digitally recorded. LV dP/dt is a well accepted measure of ionotropic state. Systolic and diastolic aortic pressures were measured by retracting the catheter into the proximal aorta.

Another data set has as its system cholesterol fed rats. The experiment in a line: Subacute studies in cholesterol fed rats, PO once a day for seven days: cholesterol reduction, heart weight. In kind it is in vivo, rat. Conditions: 0.6-50 mg/kg/day PO once a day for seven days. Here is the method:
Methods: […] Compound 13-1-cis and Compound 18 were administered PO once a day for seven days. Serum TSH is measured using an enzyme immunoassay (EIA) kit designed for rat TSH (Amersham Pharmacia Biotech, Arlington Heights, Ill.). Expression levels of liver genes (e.g., the LDL-receptor, apoB, cpt-1, spot14 and apoA1) and heart genes ([…]^2, Kv1.5, MHCα, MHCβ, Alpha1c) are quantified by Northern blot analysis or by RT-PCR. […] Oligonucleotides specific for the complementary gene sequences are used to make ^32P-labeled probes (Multiprime DNA labeling systems, Amersham Pharmacia Biotech). Following hybridization of the probes to the nylon membranes, radioactivity is assessed on a blue film (Eastman Kodak Co,), and the resulting image quantified using the appropriate software. RT-PCR is performed using an iCycler instrument (Biorad) using appropriate primers by means of standard methodology [[…] et al. (2000) Life Sciences 66: 1683-94]. […] The activities of PEPCK and glucose 6-phosphatase in liver are measured by means of direct enzymatic assays of homogenized liver tissue as described by Andrikopoulos S et al. (1993) Diabetes 42: 1731-1736. Alternatively, expression levels of the corresponding genes are determined by Northern blot analysis or RT-PCR as described above.

Setting [6] is: Compound 18 1 mg/kg, vs control.
Setting [7] is: Compound 18 1 mg/kg, vs vehicle.

The structures appear in SMILES notation.

Experimental for cholesterol-fed rat: The cholesterol-fed rat is an animal model of hypercholesterolemia generated by feeding the animals a diet with high cholesterol content.
Serum cholesterol values were assessed and the animals randomized into groups for treatment.

Consider `Cc1cc(OCP(=O)(O)O)cc(C)c1Cc1ccc(O)c(C(C)C)c1` [Compound 7, [3,5-dimethyl-4-(4′-hydroxy-3′-iso-propylbenzyl)phenoxy]methylphosphonic Acid], for which the TSH entry in the data set with ZDF rats [1] was “no statistically significant difference from vehicle”. In addition, the “AUC (0-2 h)” value in the data set on isolated rat hepatocytes worked out at 1371 nmol·h/g. In data set [2] (another experiment, dose and route not given), the “efficacy in lowering cholesterol” value is listed as “efficacous”. Also, the serum cholesterol result in the data set with cholesterol-fed rat (1-100 mg/kd/day, IP once-a-day for seven days) is “significantly decreased serum cholesterol”. In addition, the “therapeutic window (separation between cholesterol lowering and cardiac toxicity)” value in the data set with cholesterol-fed rat (cholesterol-fed rats) was 10- to 100 fold. Besides, in data set [3], the “Liver Levels” value is given as “Not Detected”. Further, the “microvesicular steatosis (H&E liver histology)” value in the data set on ZDF rats [4] is on record as “dose dependent reduction in the microvesicular steatosis”.
As for `Cc1cc(OC[P@@]2(=O)OCC[C@@H](c3cccc(Cl)c3)O2)cc(C)c1Cc1ccc(O)c(C(C)C)c1` [Compound 13-1-cis, Cis (S)-2-[(3,5-Dimethyl-4-(4′-hydroxy-3′-iso-propylbenzyl)phenoxy)methyl]-4-(3-Chlorophenyl)-2-oxo-2λ^5-[1,3,2]-dioxaphosphinane], the “TI Improvement, ED15 HR” value in the data set with ZDF rats [5] is more than 39. Further, in the data set on Sprague Dawley (SD) rat (setting [6]), the Heart weight result is recorded as “no significant changes” and the “heart weight normalized to body weight” value is listed as “no significant changes”. For the same compound, in the data set on Sprague Dawley (SD) rat (setting [7]), the HR result is reported as “not significantly different”, the “LV dP/dt” value is “not significantly different” and the systolic aortic pressure entry was “not significantly different”. Moreover, the diastolic aortic pressure result with Sprague Dawley (SD) rat (vs vehicle) was “not significantly different”. For the same compound, the cholesterol lowering entry in [2] (hypercholesterolemic rats, 0.5 mg/kg/d orally) is given as “significant lowering of cholesterol”. Moreover, the serum cholesterol entry in the data set on cholesterol fed rats is recorded as “significantly decreased serum cholesterol”.
